The values below come from PubChem BioAssay AID256 (DTP/NCI, 2004).

Where “and” joins values, the source holds several entries; their conditions need not be identical. Equal values may be shown once. Toxic doses and inconclusive results are not listed.

The subject of the assay is CD2F1 mice, L1210 leukemia ip, survival T/C. Description: NCI In Vivo Anticancer Drug Screen. Data for tumor model L1210 Leukemia (intraperitoneal) in CD2F1 (CDF1) mice. As to conditions: higher = longer survival. The procedure, abridged:
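Each value reflects a quotient of treated over vehicle control outcomes in mice with a transplanted tumor.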

The mark [1] stands for this setting: endpoint: mean survival time, dose: 100.0 mg/kg/injection, schedule: Q01DX009 (ip), vehicle: saline with Tween-80.
Setting [2] is: endpoint: mean survival time, dose: 200.0 mg/kg/injection, schedule: Q01DX009 (ip), vehicle: saline with Tween-80.
Where [3] appears, read: endpoint: mean survival time, dose: 400.0 mg/kg/injection, schedule: Q01DX009 (ip), vehicle: saline with Tween-80.
Setting [4] is: endpoint: mean survival time, dose: 100.0 mg/kg/injection, schedule: Q04DX003 (ip), vehicle: saline with Tween-80.
Setting [5] is: endpoint: mean survival time, dose: 200.0 mg/kg/injection, schedule: Q04DX003 (ip), vehicle: saline with Tween-80.
The mark [6] stands for this setting: endpoint: mean survival time, dose: 400.0 mg/kg/injection, schedule: Q04DX003 (ip), vehicle: saline with Tween-80.
Where [7] appears, read: endpoint: mean survival time, dose: 100.0 mg/kg/injection, schedule: Q04DX003 (ip), vehicle: acetone.
Where [8] appears, read: endpoint: mean survival time, dose: 200.0 mg/kg/injection, schedule: Q04DX003 (ip), vehicle: acetone.
[9] abbreviates: endpoint: mean survival time, dose: 400.0 mg/kg/injection, schedule: Q04DX003 (ip), vehicle: acetone.
Where [10] appears, read: endpoint: mean survival time, dose: 25.0 mg/kg/injection, schedule: Q01DX009 (ip), vehicle: saline with Tween-80.
[11] abbreviates: endpoint: mean survival time, dose: 50.0 mg/kg/injection, schedule: Q01DX009 (ip), vehicle: saline with Tween-80.
Setting [12] is: endpoint: mean survival time, dose: 100.0 mg/kg/injection, schedule: Q04DX003 (ip), vehicle: saline.
The mark [13] stands for this setting: endpoint: mean survival time, dose: 400.0 mg/kg/injection, schedule: Q04DX003 (ip), vehicle: saline.

In the case of `COc1ccc(C(O)c2ccccn2)cc1` (stereo not given), the T/C is 103 % of control under setting [1], 97 % of control under setting [2] and 90 % of control under setting [3].

In the case of `O=S1(=O)Oc2cccc3cccc1c23`, the T/C is 95 % of control under setting [1]; 102 % of control under setting [4]; 98 % of control under setting [2]; 102 % of control under setting [5]; 92 % of control under setting [3]; 103 % of control under setting [6].

Turning to `Nc1ncnc(N)c1NC(=O)c1cccc(Cl)c1`, the T/C was 100 % of control (endpoint: mean survival time, dose: 25.0 mg/kg/injection, schedule: Q04DX003 (ip), vehicle: saline with Tween-80); 100 % of control (endpoint: mean survival time, dose: 50.0 mg/kg/injection, schedule: Q04DX003 (ip), vehicle: saline with Tween-80); 118 % of control and 108 % of control under setting [4].

As for `COc1ccccc1N=Nc1c(O)n(-c2ccc(Br)cc2)c(=S)n(-c2ccccc2)c1=O`, the T/C is 93 % of control (endpoint: mean survival time, dose: 100.0 mg/kg/injection, schedule: Q01DX001 (ip), vehicle: saline with Tween-80); 93 % of control (endpoint: mean survival time, dose: 200.0 mg/kg/injection, schedule: Q01DX001 (ip), vehicle: saline with Tween-80); 87 % of control (endpoint: mean survival time, dose: 400.0 mg/kg/injection, schedule: Q01DX001 (ip), vehicle: saline with Tween-80).

With `COC(=O)C(CCC1CCCCC1)CC1CCCCC1` (stereo not given), the T/C was 108 % of control under setting [7], 102 % of control under setting [8] and 108 % of control under setting [9].

For `O=c1[nH]c(=O)n([C@H]2CCCO2)cc1F`, the T/C is 93 % of control (endpoint: mean survival time, dose: 25.0 mg/kg/injection, schedule: Q01DX005 (ip), vehicle: other); 97 % of control under setting [10]; 90 % of control (endpoint: mean survival time, dose: 25.0 mg/kg/injection, schedule: Q04DX003 (ip), vehicle: saline); 93 % of control (endpoint: mean survival time, dose: 50.0 mg/kg/injection, schedule: Q01DX005 (ip), vehicle: other); 101 % of control under setting [11]; 100 % of control (endpoint: mean survival time, dose: 50.0 mg/kg/injection, schedule: Q04DX003 (ip), vehicle: saline). For the same compound, the T/C is, setting by setting: (endpoint: mean survival time, dose: 100.0 mg/kg/injection, schedule: Q01DX005 (ip), vehicle: other) 114 % of control; under setting [12], 105 % of control; (endpoint: mean survival time, dose: 112.5 mg/kg/injection, schedule: Q04DX003 (ip), vehicle: saline with Tween-80) 106 % of control; (endpoint: mean survival time, dose: 112.5 mg/kg/injection, schedule: Q04DX003 (iv), vehicle: saline with Tween-80) 104 % of control; (endpoint: mean survival time, dose: 225.0 mg/kg/injection, schedule: Q04DX003 (ip), vehicle: saline with Tween-80) 116 % of control; (endpoint: mean survival time, dose: 225.0 mg/kg/injection, schedule: Q04DX003 (iv), vehicle: saline with Tween-80) 113 % of control. For the same compound, the T/C is 95 % of control (endpoint: mean survival time, dose: 400.0 mg/kg/injection, schedule: Q01DX005 (ip), vehicle: other); 104 % of control under setting [3]; 158 % of control under setting [13]; 153 % of control (endpoint: mean survival time, dose: 450.0 mg/kg/injection, schedule: Q04DX003 (ip), vehicle: saline with Tween-80).

With `CN(C)c1ccc(OC(=O)c2cc3ccccc3cc2O)cc1`, the T/C reads like this: (endpoint: mean survival time, dose: 50.0 mg/kg/injection, schedule: Q01DX009 (ip), vehicle: Klucel (hydroxypropylcellulose) (HPC)) 112 % of control; (endpoint: mean survival time, dose: 100.0 mg/kg/injection, schedule: Q01DX009 (ip), vehicle: Klucel (hydroxypropylcellulose) (HPC)) 108 % of control; (endpoint: mean survival time, dose: 200.0 mg/kg/injection, schedule: Q01DX009 (ip), vehicle: Klucel (hydroxypropylcellulose) (HPC)) 101 % of control.

Regarding `CC(C)=CCNc1ncnc2c1ncn2C1OC(CO)C(O)C1O` (stereo not given), the T/C by setting is: under setting [1], 95 % of control; under setting [4], 91 % of control; under setting [5], 101 % of control; under setting [6], 100 % of control.

Regarding `O=S(=O)(c1ccccc1)N1CN2CCN(C2)C1`, the T/C by setting is: (endpoint: mean survival time, dose: 12.5 mg/kg/injection, schedule: Q01DX009 (ip), vehicle: saline with Tween-80) 95 % of control and 110 % of control; under setting [10], 97 % of control and 100 % of control; under setting [11], 102 % of control and 106 % of control; under setting [1], 101 % of control and 111 % of control; under setting [2], 117 % of control and 107 % of control; under setting [3], 117 % of control and 105 % of control.

For `CC(=O)OC1C(CNC(=O)Oc2ccccc2)OC(n2cnc3c(=O)[nH]c(N)nc32)C1OC(C)=O` (stereo not given), the T/C (endpoint: mean survival time, dose: 100.0 mg/kg/injection, schedule: Q01DX001 (ip), vehicle: Klucel (hydroxypropylcellulose) (HPC)) is 88 % of control; the T/C (endpoint: mean survival time, dose: 200.0 mg/kg/injection, schedule: Q01DX001 (ip), vehicle: Klucel (hydroxypropylcellulose) (HPC)) was 94 % of control; the T/C (endpoint: mean survival time, dose: 400.0 mg/kg/injection, schedule: Q01DX001 (ip), vehicle: Klucel (hydroxypropylcellulose) (HPC)) was 91 % of control.

For `COc1cccc2c1C(=O)c1c(O)c3c(c(O)c1C2=O)C[C@@](O)(C(=O)CO)C[C@@H]3OC1CC(OC(C)=O)C(OC(C)=O)C(C)O1` (stereo not given in full), the T/C runs as follows: (endpoint: mean survival time, dose: 1.56 mg/kg/injection, schedule: Q01DX009 (ip), vehicle: distilled water + Tween-80) 115 % of control; (endpoint: mean survival time, dose: 3.12 mg/kg/injection, schedule: Q01DX009 (ip), vehicle: distilled water + Tween-80) 122 % of control; (endpoint: mean survival time, dose: 6.25 mg/kg/injection, schedule: Q01DX009 (ip), vehicle: distilled water + Tween-80) 167 % of control; (endpoint: mean survival time, dose: 12.5 mg/kg/injection, schedule: Q01DX009 (ip), vehicle: distilled water + Tween-80) 153 % of control and 203 % of control; (endpoint: mean survival time, dose: 25.0 mg/kg/injection, schedule: Q01DX009 (ip), vehicle: distilled water + Tween-80) 93 % of control and 100 % of control; (endpoint: median survival time, dose: 1.56 mg/kg/injection, schedule: Q01DX009 (ip), vehicle: distilled water + Tween-80) 113 % of control. Moreover, the T/C (endpoint: median survival time, dose: 6.25 mg/kg/injection, schedule: Q01DX009 (ip), vehicle: distilled water + Tween-80) was 158 % of control and 176 % of control; the T/C (endpoint: median survival time, dose: 12.5 mg/kg/injection, schedule: Q01DX009 (ip), vehicle: distilled water + Tween-80) is 226 % of control and 250 % of control; the T/C (endpoint: median survival time, dose: 25.0 mg/kg/injection, schedule: Q01DX009 (ip), vehicle: distilled water + Tween-80) was 120 % of control and 95 % of control.

For `Cc1cc(Cl)cc([N+](=O)[O-])c1`, the T/C is, setting by setting: under setting [4], 92 % of control; under setting [5], 88 % of control; under setting [6], 87 % of control.

On to `COc1cc([C@@H]2c3cc4c(cc3C[C@H]3COC(=O)[C@@H]32)OCO4)cc(OC)c1OC`, for which the T/C (endpoint: mean survival time, dose: 6.25 mg/kg/injection, schedule: Q01DX015 (ip), vehicle: saline) was 111 % of control; the T/C (endpoint: mean survival time, dose: 12.5 mg/kg/injection, schedule: Q01DX015 (ip), vehicle: saline) was 118 % of control; the T/C (endpoint: mean survival time, dose: 25.0 mg/kg/injection, schedule: Q01DX015 (ip), vehicle: saline) was 106 % of control.

`CC(=O)Nc1ccc2c(c1)CCCC2`: the T/C reads like this: (endpoint: mean survival time, dose: 100.0 mg/kg/injection, schedule: Q04DX002 (ip), vehicle: saline with Tween-80) 101 % of control; (endpoint: mean survival time, dose: 200.0 mg/kg/injection, schedule: Q04DX002 (ip), vehicle: saline with Tween-80) 104 % of control; (endpoint: mean survival time, dose: 400.0 mg/kg/injection, schedule: Q04DX002 (ip), vehicle: saline with Tween-80) 104 % of control.

With `CCOC(=O)c1cc2c3n(c1=O)CCCC3C(c1ccccn1)OC2=O` (stereo not given), the T/C is 100 % of control under setting [12]; 107 % of control (endpoint: mean survival time, dose: 200.0 mg/kg/injection, schedule: Q04DX003 (ip), vehicle: saline); 102 % of control under setting [13].

For the compound `COCC1OC(COC)C(OC)C1OC` (stereo not given), the T/C under setting [7] is 102 % of control, the T/C under setting [8] is 102 % of control and the T/C under setting [9] is 94 % of control.

For `CCOC(=O)Nc1cc(NC(C)CCCN(CC)CC)c2ncc(-c3cc(OC)c(OC)c(OC)c3)nc2n1` (stereo not given) (tested in a mixture with another compound), the T/C reads like this: (endpoint: mean survival time, dose: 50.0 mg/kg/injection, schedule: Q01DX009 (ip), vehicle: saline) 89 % of control; (endpoint: mean survival time, dose: 100.0 mg/kg/injection, schedule: Q01DX009 (ip), vehicle: saline) 89 % of control; (endpoint: mean survival time, dose: 200.0 mg/kg/injection, schedule: Q01DX009 (ip), vehicle: saline) 89 % of control.

On to `COc1cc(OC)c(NC(=O)Oc2cc(C)c(Cl)c(C)c2Cl)cc1Cl`, for which the T/C was 94 % of control under setting [11], 94 % of control under setting [1] and 97 % of control under setting [2].
